Measurements taken from PubChem BioAssay (NCI).
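A five-concentration, 48-hour dose response in 96-well plates underlies each endpoint, interpolated linearly between surrounding concentrations. Here, GI50 denotes the concentration required for 50% inhibition of growth. At the TGI there is no net growth.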

tested on: OVCAR-3 ovarian; assay: growth of human tumour cells (NCI), 48 h

Row | SMILES | GI50 | TGI
1 | CC[C@@H](c1ccc(O)c(O)c1)[C@@H](CC)c1ccc(O)c(O)c1 | 3.61 µM | 11.6 µM
2 | O=C1OCC2=C1C(c1cccc(Br)c1)c1cc3c(cc1N2CCO)OCCO3 (centres undefined) | 0.0345 µM | 0.0967 µM
3 | COc1cc(-c2nc3sccn3c2-c2ccnc(NCCNS(=O)(=O)c3ccc(F)cc3)n2)ccc1F | 3.23 µM | > 100 µM
4 | Cc1cc(Nc2ccc(C)c(Cl)c2)n2nc(C(F)(F)F)nc2n1 | 22 µM | 75.9 µM
5 | COc1ccc(Cn2c(Br)c3c(c2Br)-c2nc(N)sc2CC3)cc1 | 4.1 µM | 15.5 µM
6 | C#Cc1cccc(Nc2nc3cc([N+](=O)[O-])ccc3nc2Nc2ccc(O)cc2)c1 | 1.87 µM | 4.14 µM
7 | CN(C)CC(O)c1ccc(/C=C/c2ccc(Cl)cc2)cc1 (centres undefined) | 1.57 µM | 2.91 µM
8 | Cc1nnc2ccnn2c1C | > 100 µM | > 100 µM
9 | C=C1C[C@H](O)[C@H](Br)C(C)(C)[C@@]12CCC(C)=C(Cl)C2 | 0.509 µM | 4.13 µM
10 | CCOC(=O)n1cc(C2=C(c3ccc(OC)c(OC)c3)COC2=O)c2ccccc21 | 0.0332 µM | 0.114 µM
11 | C=C1C(=O)O[C@H]2[C@H]1CC/C(CNC(=O)c1cc3ccccc3[nH]1)=C\CC[C@@]1(C)O[C@@H]21 | 0.504 µM | 1.69 µM
12 | COC1=CC(=O)C(C2(OC(C)C)OC(=O)C(Cl)=C2Cl)=CC1=O (centres undefined) |  | > 100 µM
13 | COc1ccc(C(c2cc(OC)c(OC)c(OC)c2)n2cncn2)cc1O (centres undefined) | 0.323 µM | 1.48 µM

tested on: TK-10 renal; assay: growth of human tumour cells (NCI), 48 h

Row | SMILES | GI50 | TGI
14 | CC[C@@H](c1ccc(O)c(O)c1)[C@@H](CC)c1ccc(O)c(O)c1 | 26 µM | 70.3 µM
15 | O=C1OCC2=C1C(c1cccc(Br)c1)c1cc3c(cc1N2CCO)OCCO3 (centres undefined) | 0.101 µM | 16.9 µM
16 | COc1cc(-c2nc3sccn3c2-c2ccnc(NCCNS(=O)(=O)c3ccc(F)cc3)n2)ccc1F | 6.27 µM | > 100 µM
17 | Cc1cc(Nc2ccc(C)c(Cl)c2)n2nc(C(F)(F)F)nc2n1 | 31.2 µM | 84.8 µM
18 | COc1ccc(Cn2c(Br)c3c(c2Br)-c2nc(N)sc2CC3)cc1 | 3.69 µM | 12.7 µM
19 | Cc1nnc2ccnn2c1C | > 100 µM | > 100 µM
20 | C=C1C[C@H](O)[C@H](Br)C(C)(C)[C@@]12CCC(C)=C(Cl)C2 | 0.373 µM | 2.89 µM
21 | CCOC(=O)n1cc(C2=C(c3ccc(OC)c(OC)c3)COC2=O)c2ccccc21 | 13.5 µM | > 91.5 µM
22 | C=C1C(=O)O[C@H]2[C@H]1CC/C(CNC(=O)c1cc3ccccc3[nH]1)=C\CC[C@@]1(C)O[C@@H]21 | 1.48 µM | 3.23 µM
23 | COC1=CC(=O)C(C2(OC(C)C)OC(=O)C(Cl)=C2Cl)=CC1=O (centres undefined) |  | > 100 µM
24 | COc1ccc(C(c2cc(OC)c(OC)c(OC)c2)n2cncn2)cc1O (centres undefined) | > 100 µM | > 100 µM

tested on: SNB-75 CNS; assay: growth of human tumour cells (NCI), 48 h

Row | SMILES | GI50 | TGI
25 | CC[C@@H](c1ccc(O)c(O)c1)[C@@H](CC)c1ccc(O)c(O)c1 | 17.7 µM | 41.6 µM
26 | O=C1OCC2=C1C(c1cccc(Br)c1)c1cc3c(cc1N2CCO)OCCO3 (centres undefined) | 0.0397 µM | > 35.4 µM
27 | COc1cc(-c2nc3sccn3c2-c2ccnc(NCCNS(=O)(=O)c3ccc(F)cc3)n2)ccc1F | 1.54 µM | > 100 µM
28 | Cc1cc(Nc2ccc(C)c(Cl)c2)n2nc(C(F)(F)F)nc2n1 | 27.7 µM | > 100 µM
29 | COc1ccc(Cn2c(Br)c3c(c2Br)-c2nc(N)sc2CC3)cc1 | 1.92 µM | 8.64 µM
30 | C#Cc1cccc(Nc2nc3cc([N+](=O)[O-])ccc3nc2Nc2ccc(O)cc2)c1 | 1.36 µM | 3.42 µM
31 | CN(C)CC(O)c1ccc(/C=C/c2ccc(Cl)cc2)cc1 (centres undefined) | 1.71 µM | 4.18 µM
32 | Cc1nnc2ccnn2c1C | > 100 µM | > 100 µM
33 | Cn1cc(-c2cc3c(N4CCN(c5ncc([C@@](C)(N)c6ccc(F)cc6)cn5)CC4)ncnn3c2)cn1 | 1.39 µM | > 100 µM
34 | C=C1C[C@H](O)[C@H](Br)C(C)(C)[C@@]12CCC(C)=C(Cl)C2 | 0.16 µM | 0.785 µM
35 | C=C1C(=O)O[C@H]2[C@H]1CC/C(CNC(=O)c1cc3ccccc3[nH]1)=C\CC[C@@]1(C)O[C@@H]21 | 6.98 µM | 21 µM
36 | COC1=CC(=O)C(C2(OC(C)C)OC(=O)C(Cl)=C2Cl)=CC1=O (centres undefined) |  | > 100 µM

tested on: SK-MEL-28 melanoma; assay: growth of human tumour cells (NCI), 48 h

Row | SMILES | GI50 | TGI
37 | CC[C@@H](c1ccc(O)c(O)c1)[C@@H](CC)c1ccc(O)c(O)c1 | 19.1 µM | 44.6 µM
38 | O=C1OCC2=C1C(c1cccc(Br)c1)c1cc3c(cc1N2CCO)OCCO3 (centres undefined) | 0.0884 µM | > 50 µM
39 | COc1cc(-c2nc3sccn3c2-c2ccnc(NCCNS(=O)(=O)c3ccc(F)cc3)n2)ccc1F | 3.28 µM | > 100 µM
40 | Cc1cc(Nc2ccc(C)c(Cl)c2)n2nc(C(F)(F)F)nc2n1 | 29.8 µM | > 100 µM
41 | COc1ccc(Cn2c(Br)c3c(c2Br)-c2nc(N)sc2CC3)cc1 | 4.98 µM | 18.1 µM
42 | C#Cc1cccc(Nc2nc3cc([N+](=O)[O-])ccc3nc2Nc2ccc(O)cc2)c1 | 1.78 µM | 3.34 µM
43 | CN(C)CC(O)c1ccc(/C=C/c2ccc(Cl)cc2)cc1 (centres undefined) | 1.84 µM | 3.45 µM
44 | Cc1nnc2ccnn2c1C | > 100 µM | > 100 µM
45 | C=C1C[C@H](O)[C@H](Br)C(C)(C)[C@@]12CCC(C)=C(Cl)C2 | 0.458 µM | 2.78 µM
46 | CCOC(=O)n1cc(C2=C(c3ccc(OC)c(OC)c3)COC2=O)c2ccccc21 | 0.271 µM | > 100 µM
